Measured values reported in patent US10590123B2, “Pesticidally active amide heterocyclic derivatives with sulphur containing substituents” (SYNGENTA PARTICIPATIONS AG, priority 2014, dated 2020).

Legend:
Type in all cases: in vivo
[1] = system: Plutella xylostella (Diamond Back Moth); test: Example B3: Activity against Plutella xylostella, artificial diet; conditions: 120 h, application rate 200 ppm, L2 larvae, 5 days after infestation, read-out: effect in at least one of the two categories (mortality or growth inhibition)
Experimental: Example B3: Activity Against Plutella xylostella (Diamond Back Moth)
24-well microtiter plates with artificial diet were treated with aqueous test solutions prepared from 10′000 ppm DMSO stock solutions by pipetting. After drying, the plates were infested with L2 larvae (10 to 15 per well). The samples were assessed for mortality and growth inhibition in comparison to untreated samples 5 days after infestation.

[2] = system: Myzus persicae (Green Peach Aphid); test: Example B8: Activity against Myzus persicae, sprayed sunflower leaf discs; conditions: foliar, 144 h, application rate 200 ppm, aphid population of mixed ages, 6 days after infestation
Experimental: Example B8: Activity Against Myzus persicae (Green Peach Aphid)
Sunflower leaf discs were placed on agar in a 24-well microtiter plate and sprayed with aqueous test solutions prepared from 10′000 ppm DMSO stock solutions. After drying, the leaf discs were infested with an aphid population of mixed ages. The samples were assessed for mortality 6 days after infestation.

[3] = system: Myzus persicae (Green Peach Aphid); test: Example B9: Activity against Myzus persicae, systemic via pea seedling roots; conditions: 144 h, test rate 24 ppm, pea seedling roots in test solution, 6 days
Experimental: Example B9: Activity Against Myzus persicae (Green Peach Aphid)
Roots of pea seedlings infested with an aphid population of mixed ages were placed directly in the aqueous test solutions prepared from 10′000 DMSO stock solutions. The samples were assessed for mortality 6 days after placing seedlings in test solutions.

CCS(=O)(=O)c1cc(-c2cncnc2)cnc1C(=O)N(C)c1nnc(C(F)(F)F)s1 [Compound P58]
≥ 80%: percent effect (mortality or growth inhibition) at 200 ppm [1] | mortality at 200 ppm [2] | mortality at 24 ppm [3]
